Molecules are shown by their SMILES.

This passage reports remaining binding results from publication PMC10507085, “Pharmacological inhibition of TBK1/IKKε blunts immunopathology in a murine model of SARS-CoV-2 infection” (Nature Communications, 2023).

Experiment in all cases: biochemical
Common to all, as to set-up: KINOMEscan competition binding, DNA-tagged kinase against immobilised ligand, qPCR read-out
What all share (conditions): read-out: Percent Control

The target in assay [1] is HCK (Homo sapiens, UniProt P08631).
Assay [2] has as its target TTK (Homo sapiens, UniProt P33981).
Assay [3] concerns the target PRKAA2 (Homo sapiens, UniProt P54646).
Assay [4] deals with MINK1 (Homo sapiens, UniProt Q8N4C8).
The target of assay [5] is CDC42BPG (Homo sapiens, UniProt Q6DT37).
Assay [6] addresses CDK4 (Homo sapiens, UniProt P11802).
The target in assay [7] is PAK4 (Homo sapiens, UniProt O96013).
The target of assay [8] is DYRK1A (Homo sapiens, UniProt Q13627).
Assay [9] concerns the target WEE1 (Homo sapiens, UniProt P30291).
Assay [10] deals with T1, RSK1(Kin.Dom.2-C-terminal) (Homo sapiens, UniProt Q15418).
T1 construct: gene RPS6KA1; Kin.Dom.2 C-terminal

Assay [11] deals with MAP3K12 (Homo sapiens, UniProt Q12852).
In assay [12] the target is FGR (Homo sapiens, UniProt P09769).
Assay [13] has as its target AAK1 (Homo sapiens, UniProt Q2M2I8).
The target in assay [14] is CAMK4 (Homo sapiens, UniProt Q16566).
In assay [15] the target is MAP3K9 (Homo sapiens, UniProt P80192).
Assay [16] has as its target MAPK4 (Homo sapiens, UniProt P31152).
The target of assay [17] is CSNK1D (Homo sapiens, UniProt P48730).
Assay [18] addresses TGFBR1 (Homo sapiens, UniProt P36897).
For assay [19], the target named is PRKCE (Homo sapiens, UniProt Q02156).
For assay [20], the target named is EPHB1 (Homo sapiens, UniProt P54762).
Sequence of EPHB1 (P54762 whole entry): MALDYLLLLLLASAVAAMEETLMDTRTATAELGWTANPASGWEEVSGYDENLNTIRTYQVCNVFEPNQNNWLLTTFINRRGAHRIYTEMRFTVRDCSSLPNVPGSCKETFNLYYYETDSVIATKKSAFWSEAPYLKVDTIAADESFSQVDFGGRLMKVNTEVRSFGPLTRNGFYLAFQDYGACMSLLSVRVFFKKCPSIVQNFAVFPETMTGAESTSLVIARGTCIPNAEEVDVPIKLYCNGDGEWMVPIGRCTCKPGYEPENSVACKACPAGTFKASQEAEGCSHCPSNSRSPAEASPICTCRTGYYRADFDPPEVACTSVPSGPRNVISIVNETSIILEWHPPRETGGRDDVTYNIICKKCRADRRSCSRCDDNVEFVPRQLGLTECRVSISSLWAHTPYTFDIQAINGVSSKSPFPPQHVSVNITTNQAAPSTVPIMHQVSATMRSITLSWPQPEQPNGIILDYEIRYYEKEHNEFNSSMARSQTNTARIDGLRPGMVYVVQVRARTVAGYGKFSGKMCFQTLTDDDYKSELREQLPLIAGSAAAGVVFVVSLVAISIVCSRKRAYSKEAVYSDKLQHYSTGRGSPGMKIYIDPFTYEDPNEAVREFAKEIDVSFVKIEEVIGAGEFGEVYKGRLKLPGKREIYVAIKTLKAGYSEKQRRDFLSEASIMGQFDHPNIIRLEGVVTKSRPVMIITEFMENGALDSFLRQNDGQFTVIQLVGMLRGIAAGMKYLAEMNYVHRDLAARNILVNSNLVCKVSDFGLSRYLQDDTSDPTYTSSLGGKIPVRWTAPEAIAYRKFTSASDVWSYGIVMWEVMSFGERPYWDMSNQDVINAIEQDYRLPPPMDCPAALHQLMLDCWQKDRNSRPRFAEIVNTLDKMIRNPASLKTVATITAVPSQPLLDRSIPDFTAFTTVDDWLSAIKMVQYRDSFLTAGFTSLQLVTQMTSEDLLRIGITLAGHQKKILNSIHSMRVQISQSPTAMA

Sequence of TGFBR1 (P36897 whole entry): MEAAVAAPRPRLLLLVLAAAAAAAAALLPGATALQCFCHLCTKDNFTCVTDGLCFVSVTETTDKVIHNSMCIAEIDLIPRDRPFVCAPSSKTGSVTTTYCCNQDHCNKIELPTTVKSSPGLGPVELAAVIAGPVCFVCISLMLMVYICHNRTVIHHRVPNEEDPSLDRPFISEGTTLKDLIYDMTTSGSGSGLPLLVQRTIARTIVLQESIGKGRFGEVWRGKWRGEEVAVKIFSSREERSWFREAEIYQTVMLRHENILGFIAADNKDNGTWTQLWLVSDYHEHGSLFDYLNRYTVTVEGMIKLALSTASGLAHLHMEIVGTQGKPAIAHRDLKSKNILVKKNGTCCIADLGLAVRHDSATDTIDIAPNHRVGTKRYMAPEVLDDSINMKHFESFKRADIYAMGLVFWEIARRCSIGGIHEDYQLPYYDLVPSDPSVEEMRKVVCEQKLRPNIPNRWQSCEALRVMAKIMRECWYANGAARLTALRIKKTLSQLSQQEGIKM
Sequence of MAP3K12 (Q12852 whole entry): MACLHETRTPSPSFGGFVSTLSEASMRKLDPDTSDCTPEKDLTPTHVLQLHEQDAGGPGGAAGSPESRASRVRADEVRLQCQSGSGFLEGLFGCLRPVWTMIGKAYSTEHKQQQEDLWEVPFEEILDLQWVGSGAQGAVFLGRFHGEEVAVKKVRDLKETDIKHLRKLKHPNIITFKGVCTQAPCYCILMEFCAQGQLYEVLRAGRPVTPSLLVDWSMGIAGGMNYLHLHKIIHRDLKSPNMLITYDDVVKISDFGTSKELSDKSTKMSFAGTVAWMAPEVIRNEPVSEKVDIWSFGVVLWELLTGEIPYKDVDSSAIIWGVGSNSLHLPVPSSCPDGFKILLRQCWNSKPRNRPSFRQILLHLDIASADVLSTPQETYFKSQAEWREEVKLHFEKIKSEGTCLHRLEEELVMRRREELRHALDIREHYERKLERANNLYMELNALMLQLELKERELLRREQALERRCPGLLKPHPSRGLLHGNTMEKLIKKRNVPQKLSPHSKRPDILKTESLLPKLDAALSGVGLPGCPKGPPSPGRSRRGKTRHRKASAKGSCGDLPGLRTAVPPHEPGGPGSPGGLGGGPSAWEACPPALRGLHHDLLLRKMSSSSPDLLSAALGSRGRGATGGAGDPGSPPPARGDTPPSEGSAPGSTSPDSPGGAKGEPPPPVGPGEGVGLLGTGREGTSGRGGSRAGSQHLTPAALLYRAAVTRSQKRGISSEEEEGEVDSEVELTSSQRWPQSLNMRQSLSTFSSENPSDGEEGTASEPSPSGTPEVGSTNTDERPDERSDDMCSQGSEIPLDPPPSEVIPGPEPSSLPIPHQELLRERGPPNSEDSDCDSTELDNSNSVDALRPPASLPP
Sequence of CAMK4 (Q16566 whole entry): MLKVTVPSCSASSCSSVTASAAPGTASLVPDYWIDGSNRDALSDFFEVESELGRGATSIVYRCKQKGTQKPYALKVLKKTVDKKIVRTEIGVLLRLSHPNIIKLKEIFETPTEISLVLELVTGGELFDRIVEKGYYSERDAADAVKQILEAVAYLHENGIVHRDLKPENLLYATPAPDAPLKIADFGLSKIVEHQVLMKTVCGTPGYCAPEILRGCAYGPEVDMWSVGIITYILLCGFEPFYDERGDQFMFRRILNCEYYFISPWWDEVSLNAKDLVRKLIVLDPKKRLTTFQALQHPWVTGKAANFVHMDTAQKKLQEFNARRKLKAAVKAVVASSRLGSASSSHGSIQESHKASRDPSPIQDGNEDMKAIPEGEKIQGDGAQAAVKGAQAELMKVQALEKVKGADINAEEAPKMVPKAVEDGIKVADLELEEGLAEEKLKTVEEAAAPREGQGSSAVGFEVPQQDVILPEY
Sequence of MAP3K9 (P80192 whole entry): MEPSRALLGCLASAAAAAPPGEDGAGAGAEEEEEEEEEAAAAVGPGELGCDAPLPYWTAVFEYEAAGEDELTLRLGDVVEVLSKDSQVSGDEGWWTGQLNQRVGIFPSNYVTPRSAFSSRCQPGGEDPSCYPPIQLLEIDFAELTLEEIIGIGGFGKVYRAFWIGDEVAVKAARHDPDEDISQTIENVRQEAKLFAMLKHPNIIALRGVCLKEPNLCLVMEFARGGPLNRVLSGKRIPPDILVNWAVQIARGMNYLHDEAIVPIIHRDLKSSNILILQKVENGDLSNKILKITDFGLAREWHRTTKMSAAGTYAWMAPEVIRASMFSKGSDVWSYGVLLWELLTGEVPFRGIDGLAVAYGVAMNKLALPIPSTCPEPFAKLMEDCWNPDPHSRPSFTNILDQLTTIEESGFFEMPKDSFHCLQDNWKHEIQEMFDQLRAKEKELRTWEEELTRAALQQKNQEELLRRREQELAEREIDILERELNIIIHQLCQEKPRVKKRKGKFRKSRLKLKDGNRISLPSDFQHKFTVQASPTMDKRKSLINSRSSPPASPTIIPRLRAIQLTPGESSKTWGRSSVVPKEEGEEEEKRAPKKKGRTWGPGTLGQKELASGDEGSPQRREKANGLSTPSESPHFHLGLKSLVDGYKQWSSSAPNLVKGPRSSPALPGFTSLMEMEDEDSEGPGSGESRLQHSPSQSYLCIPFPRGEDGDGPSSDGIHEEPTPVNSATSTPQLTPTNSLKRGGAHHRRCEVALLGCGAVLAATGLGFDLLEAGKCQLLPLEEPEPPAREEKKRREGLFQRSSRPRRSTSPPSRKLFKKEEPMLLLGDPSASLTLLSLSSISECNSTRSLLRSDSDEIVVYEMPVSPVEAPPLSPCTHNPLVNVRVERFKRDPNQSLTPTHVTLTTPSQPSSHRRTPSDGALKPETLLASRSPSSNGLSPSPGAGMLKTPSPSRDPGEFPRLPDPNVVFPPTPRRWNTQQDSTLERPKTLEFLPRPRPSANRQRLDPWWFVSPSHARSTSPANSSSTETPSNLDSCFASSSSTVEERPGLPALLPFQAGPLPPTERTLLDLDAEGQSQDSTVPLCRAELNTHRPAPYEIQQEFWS
Sequence of FGR (P09769 whole entry): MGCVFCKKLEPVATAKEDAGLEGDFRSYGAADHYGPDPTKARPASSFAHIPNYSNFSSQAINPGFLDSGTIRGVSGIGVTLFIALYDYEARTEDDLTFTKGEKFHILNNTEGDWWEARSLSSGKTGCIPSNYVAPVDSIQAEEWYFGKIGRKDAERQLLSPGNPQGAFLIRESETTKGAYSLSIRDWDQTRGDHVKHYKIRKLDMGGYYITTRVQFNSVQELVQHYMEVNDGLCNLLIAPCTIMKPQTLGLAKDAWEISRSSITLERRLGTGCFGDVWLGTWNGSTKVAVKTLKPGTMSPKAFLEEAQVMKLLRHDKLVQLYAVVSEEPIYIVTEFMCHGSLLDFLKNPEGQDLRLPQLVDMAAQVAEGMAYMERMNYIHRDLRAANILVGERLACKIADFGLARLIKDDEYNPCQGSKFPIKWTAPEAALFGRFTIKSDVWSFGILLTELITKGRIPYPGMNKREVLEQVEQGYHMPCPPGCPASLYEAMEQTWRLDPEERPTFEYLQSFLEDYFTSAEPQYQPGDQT
Sequence of CDK4 (P11802 whole entry): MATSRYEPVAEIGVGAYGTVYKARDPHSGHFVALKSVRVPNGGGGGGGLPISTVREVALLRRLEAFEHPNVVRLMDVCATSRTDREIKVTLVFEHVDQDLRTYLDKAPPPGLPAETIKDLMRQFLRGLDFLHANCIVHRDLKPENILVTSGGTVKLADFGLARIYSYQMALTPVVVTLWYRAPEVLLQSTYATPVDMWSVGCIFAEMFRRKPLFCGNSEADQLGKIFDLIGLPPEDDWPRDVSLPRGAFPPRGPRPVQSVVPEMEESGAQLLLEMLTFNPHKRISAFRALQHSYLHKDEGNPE

On to `Oc1ccc(C2=Cc3ccc(O)cc3OC2)cc1` [compound 1, idronoxil], for which the remaining binding at 10 µM is 83% in [1]; 83% in [2]; 84% in assay [3]; 38% in [4]; 93% in assay [5]; 100% in assay [6]. For the same compound, the remaining binding at 10 µM amounted to 76% in assay [7]; 34% in assay [8]; 84% in [9]; 69% in assay [10]; 75% in assay [11]; 74% in [12]. The remaining binding at 10 µM was found to be 61% in assay [13]; 100% in [14]; 82% in assay [15]; 100% in assay [16]; 58% in [17]; 78% in assay [18]. Further, the remaining binding at 10 µM in assay [19] worked out at 92%; in [20] it was 84%.
